Data as given in ChEMBL document CHEMBL1201862, “PubChem BioAssay data set” (2004).
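Tested at 5 concentrations; 48 h exposure; 96-well plates; endpoints linearly interpolated, else capped at highest concentration. The concentration for 50% growth inhibition is given as GI50.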 Activity calls are given as the source filed them. Cut-off read from the data, not from the text of the source: active = GI50 up to about 1.1 µM and inactive = higher.

Columns and labels:
Test in all cases: NCI anticancer screen, dose series, 48 h
HCT-116 = system: HCT-116
SF-268 = system: SF-268
TK-10 = system: TK-10
T47D = system: T47D
OVCAR-8 = system: OVCAR-8
NCI-H460 = system: NCI-H460
UO-31 = system: UO-31
MCF7 = system: MCF7
HCT-15 = system: HCT-15
UACC-257 = system: UACC-257
SK-OV-3 = system: SK-OV-3
NCI-H226 = system: NCI-H226
SK-MEL-5 = system: SK-MEL-5
RXF 393 = system: RXF 393
SNB-75 = system: SNB-75
HCC 2998 = system: HCC 2998
SNB-19 = system: SNB-19
NCI-H23 = system: NCI-H23
OVCAR-5 = system: OVCAR-5
CCRF-CEM = system: CCRF-CEM
MDA-N = system: MDA-N
HOP-92 = system: HOP-92
A498 = system: A498
KM12 = system: KM12
MDA-MB-435 = system: MDA-MB-435
MDA-MB-231 = system: MDA-MB-231
SK-MEL-28 = system: SK-MEL-28
ACHN = system: ACHN
SF-539 = system: SF-539
BT-549 = system: BT-549
LOX IMVI = system: LOX IMVI
OVCAR-4 = system: OVCAR-4
COLO 205 = system: COLO 205
IGROV-1 = system: IGROV-1
HOP-62 = system: HOP-62
SN12C = system: SN12C
UACC-62 = system: UACC-62
SW-620 = system: SW-620
NCI/ADR-RES = system: NCI/ADR-RES
CAKI-1 = system: CAKI-1
PC-3 = system: PC-3
U-251 = system: U-251
NCI-H522 = system: NCI-H522
Hs-578T = system: Hs-578T
M14 = system: M14
SK-MEL-2 = system: SK-MEL-2
DU-145 = system: DU-145
OVCAR-3 = system: OVCAR-3
786-0 = system: 786-0
K562 = system: K562
EKVX = system: EKVX
Malme-3M = system: Malme-3M
HT-29 = system: HT-29
MOLT-4 = system: MOLT-4
SF-295 = system: SF-295
RPMI-8226 = system: RPMI-8226
A549 = system: A549
HL-60 = system: HL-60

## OCCNCNc1nc(NCNCCO)nc(N(CNCCO)CNCCO)n1
HCT-116
  GI50: 18.7 µM (inactive)
SF-268
  GI50: 23.7 µM (inactive)
TK-10
  GI50: 28.8 µM (inactive)
T47D
  GI50: 23.7 µM (inactive)
OVCAR-8
  GI50: 24.3 µM (inactive)
NCI-H460
  GI50: 21.9 µM (inactive)
UO-31
  GI50: 33.2 µM (inactive)
MCF7
  GI50: 28.1 µM (inactive)
HCT-15
  GI50: 25.2 µM
UACC-257
  GI50: 18.2 µM (inactive)
SK-OV-3
  GI50: > 43.7 µM (inactive)
NCI-H226
  GI50: 22.6 µM (inactive)
SK-MEL-5
  GI50: 15.1 µM (inactive)
RXF 393
  GI50: 15 µM (inactive)
SNB-75
  GI50: 24.7 µM (inactive)
HCC 2998
  GI50: 18.9 µM (inactive)
SNB-19
  GI50: 17.1 µM (inactive)
NCI-H23
  GI50: 21.2 µM (inactive)
OVCAR-5
  GI50: 13.6 µM (inactive)
CCRF-CEM
  GI50: 12.2 µM (inactive)
MDA-N
  GI50: 19.2 µM (inactive)
HOP-92
  GI50: 21.9 µM (inactive)
A498
  GI50: 28.1 µM (inactive)
KM12
  GI50: 39.4 µM (inactive)
MDA-MB-435
  GI50: 18.2 µM (inactive)
MDA-MB-231
  GI50: 22.8 µM (inactive)
SK-MEL-28
  GI50: 24.4 µM (inactive)
ACHN
  GI50: 27 µM (inactive)
SF-539
  GI50: 19.6 µM (inactive)
BT-549
  GI50: 21.1 µM (inactive)
LOX IMVI
  GI50: 17 µM (inactive)
OVCAR-4
  GI50: 25.9 µM (inactive)
COLO 205
  GI50: 15.7 µM (inactive)
IGROV-1
  GI50: 22.6 µM (inactive)
HOP-62
  GI50: 19.5 µM (inactive)
SN12C
  GI50: 22.3 µM (inactive)
UACC-62
  GI50: 18.8 µM (inactive)
SW-620
  GI50: 19.8 µM (inactive)
NCI/ADR-RES
  GI50: 24.4 µM (inactive)
CAKI-1
  GI50: 22.4 µM (inactive)
PC-3
  GI50: 22.3 µM (inactive)
U-251
  GI50: 21.1 µM (inactive)
NCI-H522
  GI50: 21.3 µM (inactive)
Hs-578T
  GI50: 32 µM (inactive)
M14
  GI50: 19 µM (inactive)
SK-MEL-2
  GI50: 21.5 µM (inactive)
DU-145
  GI50: 18.5 µM (inactive)
OVCAR-3
  GI50: 22.6 µM (inactive)
786-0
  GI50: 17.7 µM (inactive)
K562
  GI50: 19.9 µM (inactive)
EKVX
  GI50: 25.3 µM (inactive)
Malme-3M
  GI50: 18.5 µM (inactive)
HT-29
  GI50: 21.7 µM (inactive)
MOLT-4
  GI50: 23.2 µM (inactive)
SF-295
  GI50: 30.6 µM (inactive)
RPMI-8226
  GI50: > 43.8 µM (inactive)
A549
  GI50: 27.2 µM (inactive)
HL-60
  GI50: 20.5 µM (inactive)
